≈ marks a conversion by molar mass, not a printed value. Where two headings read alike, the source gives them in different places.
How the values were obtained:
[1] = tested on: wild-type M. tuberculosis strain H37Rv; experiment: microbe, parasite or virus in culture; assay type: cell-based; details: for MIC90: wild-type M. tuberculosis H37Rv, read-out: MIC90 against WT
Mtb IMPDH = biological target: T1, Mtb IMPDH (Mycobacterium tuberculosis, UniProt P9WKI7); experiment: IMPDH biochemical assay (inhibition of Mtb GuaB2); details: Mtb IMPDH (GuaB2) enzyme
T1 construct: made in house
T1 sequence (P9WKI7 whole entry, looked up): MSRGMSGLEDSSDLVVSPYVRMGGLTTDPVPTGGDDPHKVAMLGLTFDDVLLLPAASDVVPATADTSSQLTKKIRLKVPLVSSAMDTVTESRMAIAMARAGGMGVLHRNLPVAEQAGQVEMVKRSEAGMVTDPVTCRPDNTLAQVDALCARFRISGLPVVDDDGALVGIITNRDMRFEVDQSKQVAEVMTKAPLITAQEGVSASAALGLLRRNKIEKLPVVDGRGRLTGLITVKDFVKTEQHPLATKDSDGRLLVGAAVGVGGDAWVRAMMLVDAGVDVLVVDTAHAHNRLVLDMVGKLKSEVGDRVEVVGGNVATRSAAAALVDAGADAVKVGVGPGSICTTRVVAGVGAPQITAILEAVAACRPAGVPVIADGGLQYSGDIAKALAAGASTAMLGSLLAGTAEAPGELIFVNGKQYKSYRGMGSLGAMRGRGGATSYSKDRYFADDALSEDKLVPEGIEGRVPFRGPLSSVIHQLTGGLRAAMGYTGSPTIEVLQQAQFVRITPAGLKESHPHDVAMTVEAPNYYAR

[2] = Mycobacterium tuberculosis, H37RV

N#Cc1ccc(C(=O)N2CCN(S(=O)(=O)c3cccc4cnccc34)CC2)cc1 [Compound 17, 4-[4-(isoquinoline-5-sulfonyl)piperazine-1-carbonyl]benzonitrile]
MIC90 [1, 2]: 100 µM (≈ 40.6 µg/mL) | IC50 (Mtb IMPDH): 16.5 ± 0.5 µM

O=C(c1cccc([N+](=O)[O-])c1)N1CCN(S(=O)(=O)c2cccc3cnccc23)CC1 [Compound 18, [4-(isoquinoline-5-sulfonyl)piperazin-1-yl](3-nitrophenyl)methanone]
MIC90 [1, 2]: 12.5 µM (≈ 5.33 µg/mL) | IC50 (Mtb IMPDH): 1.1 ± 0.1 µM

O=C(c1cc([N+](=O)[O-])cc([N+](=O)[O-])c1)N1CCN(S(=O)(=O)c2cccc3cnccc23)CC1 [Compound 19, [4-(isoquinoline-5-sulfonyl)piperazin-1-yl](3,5-dinitrophenyl)methanone]
MIC90 [1, 2]: 12.5 µM (≈ 5.89 µg/mL) | IC50 (Mtb IMPDH): 1.4 ± 0.01 µM

COc1cc(C(=O)N2CCN(S(=O)(=O)c3cccc4cnccc34)CC2)cc(OC)c1OC [Compound 20, [4-(isoquinoline-5-sulfonyl)piperazin-1-yl](3,4,5-trimethoxyphenyl)methanone]
MIC90 [1, 2]: 15.6 µM (≈ 7.36 µg/mL) | IC50 (Mtb IMPDH): 12 ± 0.5 µM

O=C(NCCNS(=O)(=O)c1cccc2cnccc12)c1cc([N+](=O)[O-])cc([N+](=O)[O-])c1 [Compound 21, N-{2-[(isoquinoline-5-sulfonyl)amino]ethyl}-3,5-dinitrobenzamide]
MIC90 [1, 2]: 15.6 µM (≈ 6.95 µg/mL) | IC50 (Mtb IMPDH): 0.3 ± 0.02 µM

O=C(CC1CCCCC1)N1CCN(S(=O)(=O)c2cccc3cnccc23)CC1 [Compound 22, 2-Cyclohexyl-1-(4-(isoquinolin-5-ylsulfonyl)piperazin-1-yl)ethan-1-one]
MIC90 [1, 2]: 31.2 µM (≈ 12.5 µg/mL) | IC50 (Mtb IMPDH): 0.23 ± 0.02 µM

O=C(CC1CCC2(CC1)OCCO2)N1CCN(S(=O)(=O)c2cccc3cnccc23)CC1 [Compound 23, 2-(1,4-dioxaspiro[4.5]decan-8-yl)-1-[4-(isoquinoline-5-sulfonyl)piperazin-1-yl]ethan-1-one]
MIC90 [1, 2]: 250 µM (≈ 115 µg/mL) | IC50 (Mtb IMPDH): 3.3 ± 0.2 µM

N#Cc1cccc(CC(=O)N2CCN(S(=O)(=O)c3cccc4cnccc34)CC2)c1 [Compound 24, 3-{2-[4-(isoquinoline-5-sulfonyl)piperazin-1-yl]-2-oxoethyl}benzonitrile]
MIC90 [1, 2]: 125 µM (≈ 52.6 µg/mL) | IC50 (Mtb IMPDH): 5.96 ± 0.2 µM

O=C(Cc1cccc(O)c1)N1CCN(S(=O)(=O)c2cccc3cnccc23)CC1 [Compound 25, 2-(3-hydroxyphenyl)-1-[4-(isoquinoline-5-sulfonyl)piperazin-1-yl]ethan-1-one]
MIC90 [1, 2]: 125 µM (≈ 51.4 µg/mL) | IC50 (Mtb IMPDH): 4 ± 0.2 µM

COc1cccc(CC(=O)N2CCN(S(=O)(=O)c3cccc4cnccc34)CC2)c1 [Compound 26, 1-[4-(isoquinoline-5-sulfonyl)piperazin-1-yl]-2-(3-methoxyphenyl)ethan-1-one]
MIC90 [1, 2]: 250 µM (≈ 106 µg/mL) | IC50 (Mtb IMPDH): 2.6 ± 0.2 µM

COc1ccc(CC(=O)N2CCN(S(=O)(=O)c3cccc4cnccc34)CC2)c(OC)c1 [Compound 27, 1-[4-(isoquinoline-5-sulfonyl)piperazin-1-yl]-2-(2,4-dimethoxyphenyl)ethan-1-one]
MIC90 [1, 2]: 250 µM (≈ 114 µg/mL) | IC50 (Mtb IMPDH): 1.98 ± 0.1 µM

Cc1cccc(CC(=O)N2CCN(S(=O)(=O)c3cccc4cnccc34)CC2)c1 [Compound 28, 1-(4-(isoquinolin-5-ylsulfonyl)piperazin-1-yl)-2-(m-tolyl)ethan-1-one]
MIC90 [1, 2]: 250 µM (≈ 102 µg/mL) | IC50 (Mtb IMPDH): 11.5 ± 0.3 µM

O=C(Cc1ccc(F)cc1)N1CCN(S(=O)(=O)c2cccc3cnccc23)CC1 [Compound 29, 2-(4-fluorophenyl)-1-(4-(isoquinolin-5-ylsulfonyl)piperazin-1-yl)ethan-1-one]
MIC90 [1, 2]: 25 µM (≈ 10.3 µg/mL) | IC50 (Mtb IMPDH): 0.68 ± 0.05 µM

O=C(Cc1ccc([N+](=O)[O-])cc1)N1CCN(S(=O)(=O)c2cccc3cnccc23)CC1 [Compound 30, 1-(4-(isoquinolin-5-ylsulfonyl)piperazin-1-yl)-2-(4-nitrophenyl)ethan-1-one]
MIC90 [1, 2]: 250 µM (≈ 110 µg/mL) | IC50 (Mtb IMPDH): 5.3 ± 0.2 µM

N#Cc1cccc(NC(=O)N2CCN(S(=O)(=O)c3cccc4cnccc34)CC2)c1 [Compound 31, N-(3-cyanophenyl)-4-(isoquinolin-5-ylsulfonyl)piperazine-1-carboxamide]
MIC90 [1, 2]: 15.6 µM (≈ 6.58 µg/mL) | IC50 (Mtb IMPDH): 0.15 ± 0.03 µM

O=C(Nc1cccc(C(F)(F)F)c1)N1CCN(S(=O)(=O)c2cccc3cnccc23)CC1 [Compound 32, 4-(isoquinolin-5-ylsulfonyl)-N-(3-(trifluoromethyl)phenyl)piperazine-1-carboxamide]
MIC90 [1, 2]: 62.5 µM (≈ 29 µg/mL) | IC50 (Mtb IMPDH): 0.08 ± 0.005 µM

O=C(Nc1ccc(Cl)cc1)N1CCN(S(=O)(=O)c2cccc3cnccc23)CC1 [Compound 33, N-(4-chlorophenyl)-4-(isoquinolin-5-ylsulfonyl)piperazine-1-carboxamide]
MIC90 [1, 2]: 250 µM (≈ 108 µg/mL) | IC50 (Mtb IMPDH): 15 ± 0.5 µM

O=C(Nc1ccc(Cl)c(C(F)(F)F)c1)N1CCN(S(=O)(=O)c2cccc3cnccc23)CC1 [Compound 34, N-(4-chloro-3-(trifluoromethyl)phenyl)-4-(isoquinolin-5-ylsulfonyl)piperazine-1-carboxamide]
MIC90 [1, 2]: 25 µM (≈ 12.5 µg/mL) | IC50 (Mtb IMPDH): 0.16 ± 0.1 µM

O=C(Nc1ccc(Cl)c([N+](=O)[O-])c1)N1CCN(S(=O)(=O)c2cccc3cnccc23)CC1 [Compound 35, N-(4-chloro-3-nitrophenyl)-4-(isoquinolin-5-ylsulfonyl)piperazine-1-carboxamide]
MIC90 [1, 2]: 12.5 µM (≈ 5.95 µg/mL) | IC50 (Mtb IMPDH): 5.6 ± 0.2 µM

O=C(Nc1ccc(F)c(Cl)c1)N1CCN(S(=O)(=O)c2cccc3cnccc23)CC1 [Compound 36, N-(3-chloro-4-fluorophenyl)-4-(isoquinolin-5-ylsulfonyl)piperazine-1-carboxamide]
MIC90 [1, 2]: 31.2 µM (≈ 14 µg/mL) | IC50 (Mtb IMPDH): 0.042 ± 0.002 µM

O=C(Nc1cccc(Cl)c1Cl)N1CCN(S(=O)(=O)c2cccc3cnccc23)CC1 [Compound 37, N-(2,3-dichlorophenyl)-4-(isoquinolin-5-ylsulfonyl)piperazine-1-carboxamide]
MIC90 [1, 2]: 125 µM (≈ 58.2 µg/mL) | IC50 (Mtb IMPDH): 0.9 ± 0.06 µM

Cc1ccc(NC(=O)N2CCN(S(=O)(=O)c3cccc4cnccc34)CC2)cc1Cl [Compound 38, N-(3-chloro-4-methylphenyl)-4-(isoquinolin-5-ylsulfonyl)piperazine-1-carboxamide]
MIC90 [1, 2]: 100 µM (≈ 44.5 µg/mL) | IC50 (Mtb IMPDH): 1.6 ± 0.2 µM

Cc1ccc(NC(=O)N2CCN(S(=O)(=O)c3cccc4cnccc34)CC2)c([N+](=O)[O-])c1 [Compound 39, 4-(isoquinolin-5-ylsulfonyl)-N-(4-methyl-2-nitrophenyl)piperazine-1-carboxamide]
MIC90 [1]: 25 µM (≈ 11.4 µg/mL) | IC50 (Mtb IMPDH): 0.6 ± 0.03 µM

Cc1cccc(Cl)c1NC(=O)N1CCN(S(=O)(=O)c2cccc3cnccc23)CC1 [Compound 40, N-(2-chloro-6-methylphenyl)-4-(isoquinolin-5-ylsulfonyl)piperazine-1-carboxamide]
MIC90 [1, 2]: 250 µM (≈ 111 µg/mL) | IC50 (Mtb IMPDH): 3.4 ± 0.1 µM

O=C(Nc1ccc2c(c1)OCO2)N1CCN(S(=O)(=O)c2cccc3cnccc23)CC1 [Compound 41, N-(benzo[d][1,3]dioxol-5-yl)-4-(isoquinolin-5-ylsulfonyl)piperazine-1-carboxamide]
MIC90 [1, 2]: 6.3 µM (≈ 2.78 µg/mL) | IC50 (Mtb IMPDH): 0.08 ± 0.005 µM

O=S(=O)(c1cccc2cnccc12)N1CCN(C(=S)Nc2ccc3c(c2)OCO3)CC1 [Compound 42, N-(benzo[d][1,3]dioxol-5-yl)-4-(isoquinolin-5-ylsulfonyl)piperazine-1-carbothioamide]
MIC90 [1, 2]: 50 µM (≈ 22.8 µg/mL) | fold reduction in whole-cell activity ([1]; relative to compound 41): 8 fold | IC50 (Mtb IMPDH): 1.1 ± 0.1 µM

O=C(Nc1ccc2c(c1)OCO2)N1CCC(NS(=O)(=O)c2cccc3cnccc23)CC1 [Compound 43, 4-[(isoquinoline-5-sulfonyl)amino]-N-(2H-1,3-benzodioxol-5-yl)piperidine-1-carboxamide]
MIC90 [1, 2]: > 100 µM | IC50 (Mtb IMPDH): > 100 µM

Source: PMC6990405, “Synthesis and Structure–Activity relationship of 1-(5-isoquinolinesulfonyl)piperazine analogues as inhibitors of Mycobacterium tuberculosis IMPDH” (European Journal of Medicinal Chemistry, 2019)
